Assay results published in patent publication US9757368B2, “Anti-inflammatory agents” (Resverlogix Corp., priority 2009, dated 2017).

These compounds were tested on hIL-6 mRNA (assay: Quantification of hIL-6 mRNA in LPS-stimulated U937 macrophages (real-time PCR)). Conditions: U937 cells differentiated with PMA, 1 h pretreatment, LPS 1 μg/mL, 3 h; IL-6 mRNA normalised to hCyclophilin; compound ≤10 μM.
Format: cell-based, human
Set-up: key: Active: an active compound is one that causes a ≧20% inhibition in IL-6 mRNA at a concentration less than or equal to 10 μM
Method: In this example, hIL-6 mRNA in tissue culture cells was quantitated to measure the transcriptional inhibition of hIL-6 when treated with a compound of the invention.
A human leukemic monocytic lymphoma cell line (U937) was plated (3.2×10^5 cells per well) in a 96-well plate in 100 μL RPMI 1640+10% FBS, and differentiated into macrophages with PMA (60 ng/mL) for 3 days prior to the addition of the compound of interest. The cells were pretreated for 1 h with the test compound in DMSO prior to stimulation with lipopolysaccharide from Escherichia coli at 1 μg/mL. The cells were incubated for 3 h before harvest. At the time of harvest, cells were rinsed in 200 μL PBS. Cell lysis solution (70 μL) was added the cells for 10 min, and mRNA was then prepared using the “mRNA Catcher PLUS plate” (Invitrogen), according to the protocol supplied.
The eluted mRNA isolated was then used in a one-step quantitative real-time PCR reaction, using components of the UltraSense kit together with Applied Biosystems primer-probe mixes. 10 μL of template was amplified with 1.75 μL of IL-6 primer-probe, and 1 μL of hCyclophilin primer probe, and the reaction was carried out in multiplex. Real-time PCR data was analyzed, normalizing the Ct values for hIL-6 to hCyclophilin, prior to determining the fold induction of each unknown sample, relative to the control.
COc1cc(OCCN(C)C)c2c(=O)[nH]c(-c3cc(C)c(O)c(C)c3)nc2c1 [Example 1, 5-(2-dimethylamino-ethoxy)-2(4-hydroxy-3,5-dimethylphenyl)-7-methoxy-3H-quinazolin-4-one] was tested, and the “Inhibition of IL-6 expression” value was “Active”.
With COCCOc1cc(OC)cc2nc(-c3cc(C)c(O)c(C)c3)[nH]c(=O)c12 [Example 2, 2-(4-hydroxy-3,5-dimethyl-phenyl)-7-methoxy-5-(2-methoxy-ethoxy)-3H-quinazolin-4-one] the “Inhibition of IL-6 expression” value was “Active”.
In the case of COc1cc(OCCOCc2cccnc2)cc2nc(-c3cc(C)c(O)c(C)c3)[nH]c(=O)c12 [Example 6, 2-(4-hydroxy-3,5-dimethylphenyl)-5-methoxy-7-[2-(pyridin-3-ylmethoxy)ethoxy]-3H-quinazolin-4-one], the “Inhibition of IL-6 expression” value is reported as “Active”.
Cc1cc(-c2nc3ccc(Nc4ccncc4)cc3c(=O)[nH]2)cc(C)c1O [Example 8, 2-(4-hydroxy-3,5-dimethyl-phenyl)-6-(pyridin-4-ylamino)-3H-quinazolin-4-one] was tested, and the “Inhibition of IL-6 expression” value was “Active”.
Cc1cc(-c2nc3ccc(CNS(C)(=O)=O)cc3c(=O)[nH]2)cc(C)c1O [Example 11, N-((2-(4-hydroxy-3,5-dimethylphenyl)-4-oxo-3,4-dihydroquinazolin-6-yl)methyl)methanesulfonamide] was tested, and the “Inhibition of IL-6 expression” value was “Active”.
In the case of Cc1cc(-c2nc3ccc(N4CCOCC4)cc3c(=O)[nH]2)cc(C)c1OCCO [Example 12, 2-(4-(2-hydroxyethoxy)-3,5-dimethylphenyl)-6-morpholinoquinazolin-4(3H)-one], the “Inhibition of IL-6 expression” value is reported as “Active”.
COc1cc(OC)c2c(=O)[nH]c(-c3cc(C)c(OCCOCc4ccccc4)c(C)c3)nc2n1 [Example 13, 2-(4-(2-(benzyloxy)ethoxy)-3,5-dimethylphenyl)-5,7-dimethoxypyrido[2,3-d]pyrimidin-4(3H)-one] was tested, and the “Inhibition of IL-6 expression” value was “Active”.
Cc1cc(C)c2c(=O)[nH]c(-c3cc(C)c(OCCO)c(C)c3)nc2n1 [Example 14, 2-(4-(2-hydroxyethoxy)-3,5-dimethylphenyl)-5,7-dimethylpyrido[2,3-d]pyrimidin-4(3H)-one] was tested, and the “Inhibition of IL-6 expression” value was “Active”.
For Cc1cc(-c2nc3cc(OC(C)C)cc(OC(C)C)c3c(=O)[nH]2)cc(C)c1OCCO [Example 16, 2-[4-(2-hydroxy-ethoxy)-3,5-dimethyl-phenyl]-5,7-diisopropoxy-3H-quinazolin-4-one], the “Inhibition of IL-6 expression” value was “Active”.
COc1cc2nc(-c3cc(C)c(OCCO)c(C)c3)[nH]c(=O)c2c(OC)c1CN1CCOCC1.Cl [Example 19, 2-[4-(2-hydroxy-ethoxy)-3,5-dimethylphenyl]-5,7-dimethoxy-6-morpholin-4-ylmethyl-3H-quinazolin-4-one hydrochloride] was tested, and the “Inhibition of IL-6 expression” value was “Active”.
With COc1cc(OCCOCc2ccccc2)cc2nc(-c3ccc4oc(CO)cc4c3)[nH]c(=O)c12 [Example 24, 7-(2-benzyloxy-ethoxy)-2-(2-hydroxymethyl-benzofuran-5-yl)-5-methoxy-3H-quinazolin-4-one] the “Inhibition of IL-6 expression” value was “Active”.
COc1cc(OC)c2c(=O)[nH]c(-c3cc(C)c(OCC(=O)NCc4ccccc4)c(C)c3)nc2c1 [Example 27, N-benzyl-2-[4-(5,7-dimethoxy-4-oxo-3,4-dihydroquinazolin-2-yl)-2,6-dimethylphenoxy]acetamide] was tested, and the “Inhibition of IL-6 expression” value was “Active”.
With COc1cc(OC)c2c(=O)[nH]c(-c3cc(C)c(OCCNC=O)c(C)c3)cc2c1 [Example 41, N-{2-[4-(6,8-dimethoxy-1-oxo-1,2-dihydro-isoquinolin-3-yl)-2,6-dimethyl-phenoxy]-ethyl}-formamide] the “Inhibition of IL-6 expression” value was “Active”.
In the case of COc1cc(OC)c2c(=O)[nH]c(-c3cc(C)c(OCCNS(=O)(=O)C(C)C)c(C)c3)nc2c1 [Example 43, N-(2-(4-(5,7-dimethoxy-4-oxo-3,4-dihydroquinazolin-2-yl)-2,6-dimethylphenoxy)ethyl)propane-2-sulfonamide], the “Inhibition of IL-6 expression” value is reported as “Active”.
For COc1cc(OC)c2c(=O)[nH]c(-c3ccc(OCCNC(C)=O)c(C)c3)nc2c1 [Example 45, N-(2-(4-(5,7-dimethoxy-4-oxo-3,4-dihydroquinazolin-2-yl)-2-methylphenoxy)ethyl)acetamide], the “Inhibition of IL-6 expression” value was “Active”.
COc1cc(OC)c2c(=O)[nH]c(-c3cc(C)c(OCCN(C)C)c(C)c3)nc2c1 [Example 46, 2-(4-(2-(dimethylamino)ethoxy)-3,5-dimethylphenyl)-5,7-dimethoxyquinazolin-4(3H)-one] was tested, and the “Inhibition of IL-6 expression” value was “Active”.
In the case of COc1cc(OC)c2c(=O)[nH]c(-c3cc(C)c(OCCNC=O)c(C)c3)nc2c1 [Example 48, N-(2-(4-(5,7-dimethoxy-4-oxo-3,4-dihydroquinazolin-2-yl)-2,6-dimethylphenoxy)ethyl)formamide], the “Inhibition of IL-6 expression” value is reported as “Active”.
With COc1cc(OC)c2c(=O)[nH]c(-c3cc(C)c(OCCN(C)C=O)c(C)c3)nc2c1 [Example 49, N-(2-(4-(5,7-dimethoxy-4-oxo-3,4-dihydroquinazolin-2-yl)-2,6-dimethylphenoxy)ethyl)-N-methylformamide] the “Inhibition of IL-6 expression” value was “Active”.
In the case of COc1cc(OC)c2c(=O)[nH]c(-c3cc(C)c(OCCNS(=O)(=O)N(C)C)c(C)c3)nc2c1 [Example 50, N-(2-(4-(5,7-dimethoxy-4-oxo-3,4-dihydroquinazolin-2-yl)-2,6-dimethylphenoxy)ethyl)dimethylamino-N-sulfonamide], the “Inhibition of IL-6 expression” value is reported as “Active”.
With COc1cc(OC)c2c(=O)[nH]c(-c3cc(C)c(OCCNc4cc(C)on4)c(C)c3)nc2c1 [Example 52, 2-(3,5-dimethyl-4-(2-(5-methylisoxazol-3-ylamino)ethoxy)phenyl)-5,7-dimethoxyquinazolin-4(3H)-one] the “Inhibition of IL-6 expression” value was “Active”.
COc1cc(OC)c2c(=O)[nH]c(-c3cc(C)c(OCCNc4ncccn4)c(C)c3)nc2c1 [Example 53, 2-(3,5-dimethyl-4-(2-(pyrimidin-2-ylamino)ethoxy)phenyl)-5,7-dimethoxyquinazolin-4(3H)-one] was tested, and the “Inhibition of IL-6 expression” value was “Active”.
COc1cc(OC)c2c(=O)[nH]c(-c3cc(C)c(OCCNc4ccon4)c(C)c3)nc2c1 [Example 54, 2-(4-(2-(isoxazol-3-ylamino)ethoxy)-3,5-dimethylphenyl)-5,7-dimethoxyquinazolin-4(3H)-one] was tested, and the “Inhibition of IL-6 expression” value was “Active”.
For COc1cc(OC)c2c(=O)[nH]c(-c3cc(C)c(OCCNc4nc(OC)cc(OC)n4)c(C)c3)nc2c1 [Example 55, 2-(4-(2-(4,6-dimethoxypyrimidin-2-ylamino)ethoxy)-3,5-dimethylphenyl)-5,7-dimethoxyquinazolin-4(3H)-one], the “Inhibition of IL-6 expression” value was “Active”.
For COc1cc(OC)c2c(=O)[nH]c(-c3cc(OC)c(CCCO)c(OC)c3)nc2c1 [Example 56, 2-[4-(3-hydroxy-propyl)-3,5-dimethoxyphenyl]-5,7-dimethoxy-3H-quinazolin-4-one], the “Inhibition of IL-6 expression” value was “Active”.
For COc1cc(OC)c2c(=O)[nH]c(-c3ccc(CCCO)c(OC)c3)nc2c1 [Example 57, 2-[4-(3-hydroxy-propyl)-3-methoxy-phenyl]-5,7-dimethoxy-3H-quinazolin-4-one], the “Inhibition of IL-6 expression” value was “Active”.
